This note sets out measurements from US20230348419A1, “BIAMINOQUINOLINES AND NANOFORMULATIONS FOR CANCER TREATMENT” (The Regents of the University of California, priority 2019, published 2023).

Read-outs that look alike come from different tables or passages of the source.

The nature of data set [1]: Drug loading using BAQ13 NPs. The class given is physicochemical. How it is done:
Preparation and characterization of BAQ ONNs. NPs were prepared through the re-precipitation method. BAQ derivatives in methanol were added dropwise into MilliQ water while stirring for 5 min (volume ratio, 1:10), and then homogenous NPs were obtained after rotary evaporation (40° C., 20 min), followed by the characterization with Zetasizer Nano ZS (Malvern). The TEM samples were prepared by dropping 0.5 mM NPs on carbon square mesh and dried naturally, which were then observed under the Talos L120C TEM (FEI) at an accelerating voltage of 80 kV. To determine the drug content in nanoformulations, the prepared drug-loaded NPs were cut off by centrifugal filter (ultracel-10 kDa, Millipore), and the absorbance of filtrate (diluted with DMSO, 1:10, volume ratio) was measured for calculation of drug concentrations.
Next investigation was whether liposome-like BAQ ONNs can encapsulate additional agents. Upon nanoprecipitation of BAQ13 and various agents, homogeneous NPs with monomodal size distributions spontaneously formed (Table 2 and FIG. 9G).

Data set [2] is described as follows: In vivo pharmacokinetic study. The conditions noted are these: rats, iv, DiD 0.5 mg kg^−1, plasma DiD fluorescence. More on the design: species or system Sprague-Dawley rats. On the procedure: In vivo pharmacokinetic study. The jugular vein of female Sprague-Dawley rats (200-250 g) was implanted with a catheter for drug injection and blood collection (Harland, Indianapolis, IN, USA). Rats (n=3) were injected with free DiD, BAQ12 NPs@DiD (10:1, mass ratio) and BAQ13 NPs@DiD (10:1, mass ratio), respectively, which contained an equivalent dose of DiD (0.5 mg kg^−1). Blood samples were collected at the indicated time points and then were centrifuged to obtain the plasma. The plasma was diluted with DMSO (1:100), and the fluorescence intensity (λEx=595 nm, λEm=665 nm) was measured by a microplate reader (SpectraMax M2).

In data set [3] the test system is HT29 tumours. The experiment in a line: In/ex vivo biodistribution, HT29 model. The conditions noted are these: in vivo and ex vivo imaging, 12 h and 24 h post-injection. More on the design: species or system nude mice. On the procedure:
In/ex vivo biodistribution. Nude mice bearing the HT29 tumours were subjected to iv administration of BAQ13 NPs@DiD (10:1, mass ratio) at a dose of 1.0 mg kg^−1 DiD. In vivo imaging studies were performed at the corresponding time point. Organs (brain, heart, lung, liver, spleen, kidney, intestines, and muscle) and tumours were collected from mice for ex vivo imaging. Biodistribution of BAQ13 NPs@ NAPA+DiD (10/2.5/1.0 mg kg^−1, iv) was studied on NRG mice bearing PCSC tumours. Both in vivo and ex vivo imaging studies were performed as above.

In data set [4] the test system is BXPC-3. Put plainly: MTS cell viability assay. The format is cell-based, human. On the procedure:
(§1) Cell line and cell culture. The human pancreatic cancer cell lines (MIA PaCa-2, BXPC3, and PANC-1) were originally purchased from ATCC and were kindly provided by Dr. Shiro Urayama's Lab. HT29, HCT116, H460, MCF7, NIH/3T3, and IMR-90 cell lines were purchased from ATCC. Bone marrow cells were collected from the leg bone marrows of FVB/N mice. All the cells were cultured at 37° C. in a humidified atmosphere of 5% CO2/95% air using the corresponding medium supplemented with 10% fetal bovine serum, […] according to ATCC protocol. All the cell lines have been tested for mycoplasma contamination routinely.
(§2) Cell viability, cell growth and colony formation. Cell viability was assessed by the MTS assay. Briefly, cells in 96-well plates (4,000 cell per well) were treated as indicated, followed by the incubation with MTS regents for 4 h. OD values (490 nm) were determined via a microplate reader. Results were shown as the average cell viability calculated from the formula of [(ODtreat−ODblank)/(ODcontrol−ODblank)×100%]. Drug combination data were analyzed by Combenefit 2.02. In cell growth assay, cells in 6-well plates (50,000 cell per well) were treated as indicated and were counted manually every 24 h. Colony formation assay was also performed on 6-well plates with a starting density of 1,000-2,000 cells per well. After incubated as indicated for 10-20 days, cells were washed with PBS and stained with the solution of crystal violet and methanol for 20 min.
Background: Formazan colour is commonly taken as a measure of viable cells.

Data set [5] deals with MIA PaCa-2. Put plainly: MTS cell viability assay. The class given is cell-based, human. The conditions noted are these: 24 h; read-out: IC50 (μM) in the 24 h treatment MIA PaCa-2. How it is done:
as §1, §2

Data set [6] relates to PANC-1. Put plainly: MTS cell viability assay. The format is cell-based, human. On the procedure:
as §1, §2

Data set [7] concerns H460. Put plainly: MTS cell viability assay. The class given is cell-based. The conditions noted are these: 24 h; read-out: IC50 (μM) in the 24 h treatment H460. How it is done: as §1, §2
Data set [8] concerns HCT116. Put plainly: MTS cell viability assay. The class given is cell-based. The conditions noted are these: 48 h; read-out: IC50 values from the 48 h MTS assay (μM) HCT116. On the procedure: as §1, §2
The test system of data set [9] is HT29. The experiment in a line: MTS cell viability assay. The class given is cell-based. The conditions noted are these: 24 h; read-out: IC50 (μM) in the 24 h treatment HT29. How it is done: as §1, §2
Data set [10] has as its system IMR-90. The experiment in a line: MTS cell viability assay. The format is cell-based. The conditions noted are these: 48 h, non-cancerous cells; read-out: IC50 values from the 48 h MTS assay (μM) IMR-90. How it is done:
as §1, §2

Data set [11] deals with MCF-7. The experiment in a line: MTS cell viability assay. The class given is cell-based. The conditions noted are these: 24 h; read-out: IC50 (μM) in the 24 h treatment MCF-7. How it is done:
as §1, §2

Data set [12] deals with NIH/3T3. Put plainly: MTS cell viability assay. The format is cell-based. The conditions noted are these: 48 h, non-cancerous cells; read-out: IC50 values from the 48 h MTS assay (μM) NIH/3T3. On the procedure:
as §1, §2

Data set [13] deals with Bone marrow cells. The experiment in a line: MTS cell viability assay. The format is cell-based, FVB/N mice. The conditions noted are these: 48 h, non-cancerous cells; read-out: IC50 values from the 48 h MTS assay (μM) Bone marrow. How it is done:
as §1
as §2, with “After incubated as indicated for 10-20 days, cells were washed with PBS and stained with the solution of crystal violet and methanol for 20 min.” left out

Data set [14] concerns Red blood cells. The experiment in a line: pH-dependent haemolysis test. The format is cell-based. The conditions noted are these: whole pH range, same concentration (50 μM, 4 h).
Protocol: After centrifugation at 500×g for 5 min, the extent of haemolysis was spectrophotometrically determined according to the amount of haemoglobin in supernatants (540 nm). The haemolysis assay was used to assess the pH-dependent detergence ability and toxicity of NPs.
Data set [15] is described as follows: Titration with hydrochloric acid (pH buffering capacity). The conditions noted are these: 1 mM, 0.1 M HCl. The class given is physicochemical.
Data set [16] has as its system MIA PaCa-2 cells. The experiment in a line: RNA sequencing, differentially expressed genes. The format is cell-based, human. The conditions noted are these: 5 μM, 24 h, vs vehicle. How it is done: RNA-seq. Total RNA was extracted by the RNeasy Mini Kit (Qiagen, Germany) from the treated MIA PaCa-2 cells (5 μM, 24 h). Samples were submitted to the UC Davis Comprehensive Cancer Center's Genomics Shared Resource (GSR) for RNA-Seq analysis. Stranded RNA-Seq libraries were prepared from 100 ng total RNA using the NEBNext Ultra Directional RNA Library Prep Kit (New England BioLabs). Subsequently, libraries were combined for multiplex sequencing on an Illumina HiSeq 4000 System (2×150 bp, paired-end, >20×10^6 reads per sample). The data of normalized genes read counts were analyzed using fold change and t test. The Differentially expressed genes (DEGs) were collected for the signaling pathways enrichment by Funrich software 3.1.3. The gene sets were from MSigDB database (Broad Institute). GSEA was performed using GSEA version 3.0 in KEGG gene sets category online, with the following parameters: n=1,000 permutations, where p-adjust <0.05, and FDR <0.05 were considered significant.

Data set [17] can be described thus: In vivo toxicity studies. More on the design: species or system FVB/N mice. The conditions noted are these: 10 mg kg^−1, iv. How it is done: In vivo toxicity studies. The toxicity of BAQ NPs was investigated on female FVB/N mice via iv injection. Mice were administrated with various concentrations (10 mg kg^−1, 20 mg kg^−1 or 40 mg kg^−1) of Lys05, Liposomes@Lys05, BAQ12 NPs, and BAQ13 NPs every two days. The status of mice was monitored every day and their body weight was recorded every two days. Blood samples were collected and sent to the UCD Comparative Pathology Laboratory for tests of complete blood count (CBC) and serum chemistry.

Data set [18] has as its system MIA PaCa-2 tumours. The experiment in a line: MIA PaCa-2 xenograft model. The class given is in vivo, NRG mice. The conditions noted are these: 20 mg kg^−1 every three days. On the procedure: In vivo treatment schedule.
Antitumour effect as single agents in mice. After proving the safety of BAQ ONNs, the NPs for anticancer efficacy was evaluated in a pancreatic xenograft model of MIA PaCa-2 cells. NRG mice with MIA PaCa-2 tumours (˜100 mm^3) were randomly assigned into five groups (n=6): the saline (iv) group, the Lys05 (ip) group, the liposomes@Lys05 (iv) group, the BAQ12 NPs (iv) group and the BAQ13 NPs (iv) group. The mice were then treated every three days at a dose of 20 mg kg^−1. […] These findings clearly illustrate the potential advantages of BAQ ONNs with regard to both drug discovery and drug delivery.

In data set [19] the test system is HT29 tumours. The experiment in a line: HT29 xenograft model. The conditions noted are these: mice bearing HT29 tumours, treatment terminated on the 24th day.
Protocol: Animal model. To establish the subcutaneous xenograft models, 5×10^6 of MIA PaCa-2 cells, 2×10^6 of HT29 cells or 2×10^4 PCSCs suspended with Matrigel (Corning) and PBS mixture (1:1, volume ratio) were injected subcutaneously into the right flank of nude mice or NRG mice, respectively.
In vivo treatment schedule. The NRG mice bearing MIA PaCa-2 xenograft tumours (˜100 mm^3) were randomized into 5 groups (n=6), and then were subjected to iv injection every three days as indicated. […] The treatment on HT29 model was stopped on Day 24, and then the mice survival in each group was recorded, in which the mouse with a tumour larger than 1,000 mm^3 was considered dead. […] The tumour volume and body weight were recorded before drug administration every time. At the end of the treatment, mice were sacrificed and the tumours were collected for further analysis.
Setting [20] is: BAQ13 NPs loaded with the drug or dye.

For the molecule `CCCCCCCCCCCCCCCCCCN1C(=CC=CC=CC2=[N+](CCCCCCCCCCCCCCCCCC)c3ccccc3C2(C)C)C(C)(C)c2ccccc21.[O-][Cl+3]([O-])([O-])[O-]` [Free DiD, 1,1′-dioctadecyl-3,3,3′,3′-tetramethylindodicarbocyanine perchlorate], in data set [1] (setting [20]), the PDI amounted to 0.1 and the Size/diameter turned out to be 120 nm. The molecule further came in with an Encapsulation efficiency in [1] (drug or dye loaded in BAQ13 NPs) of 100%. The Drug-loading content in [1] (drug or dye loaded in BAQ13 NPs, mass ratio) was 50%. The “T1/2” value in data set [2] stood at 48 min. Moreover, the “biodistribution of fluorescence signals” value in data set [3] is reported as “high signals in the lungs, rather than in the tumour sites”.

`CN(CCNc1ccnc2cc(Cl)ccc12)CCNc1ccnc2cc(Cl)ccc12` [Lys05]: the IC50 in data set [4] (24 h, read-out: IC50 (μM) in the 24 h treatment BXPC-3) came to 7.8 ± 0.9 µM; in data set [4] (48 h, read-out: IC50 values from the 48 h MTS assay (μM) BXPC-3), 11.1 ± 1.7 µM; in data set [5], 16.7 ± 4.7 µM; in data set [6] (24 h, read-out: IC50 (μM) in the 24 h treatment PANC-1), 13.3 ± 2 µM; in [6] (48 h, read-out: IC50 values from the 48 h MTS assay (μM) PANC-1), 10.8 ± 0.9 µM; in data set [7], 11.1 ± 0.6 µM. Also, the IC50 worked out at 8 ± 0.7 µM in [8]; 10.6 ± 3.4 µM in data set [9]; 15.5 ± 2.5 µM in data set [10]; 12.3 ± 0.7 µM in [11]; 12.6 ± 0.9 µM in [12]; 14 ± 1.1 µM in [13]. Further, in data set [14], the “haemolytic response to pH” value is on record as “did not elicit observable haemolysis”. In addition, the “pH plateau upon titration with HCl” value in data set [15] is 7.2. Also, the downregulated genes in data set [16] came out at 103. The molecule further gave an upregulated genes in [16] of 62. For the same molecule, the “differentially expressed genes (DEGs)” value in data set [16] (fold change≥2 and p value≤0.05) was 165. For the same molecule, in [17], the “mortality after iv administration” value was “acute death of mice”. Also, the tumour growth result in [18] is “did not display a therapeutic effect”. For the same molecule, in [19], the “Median Survival” value was 28 days.
